Reference: US8293769B2, “CSF-1R inhibitors, compositions, and methods of use” (Novartis AG, priority 2008, dated 2012)

Legend:
[1] = target: T1, cytoplasmic domain of the human CSF-1R (Homo sapiens, UniProt P07333); assay: In vitro kinase assay for CSF-1R (AlphaScreen); assay type: biochemical; conditions: tested at about 1 μM; read-out: CSF1RK 1 percent inhibition
T1 construct: Recombinant protein corresponding to the cytoplasmic domain of the human CSF-1R; purchased Invitrogen Corporation, Carlsbad, Calif; PV3249
T1 sequence (P07333 539-972 limits assumed): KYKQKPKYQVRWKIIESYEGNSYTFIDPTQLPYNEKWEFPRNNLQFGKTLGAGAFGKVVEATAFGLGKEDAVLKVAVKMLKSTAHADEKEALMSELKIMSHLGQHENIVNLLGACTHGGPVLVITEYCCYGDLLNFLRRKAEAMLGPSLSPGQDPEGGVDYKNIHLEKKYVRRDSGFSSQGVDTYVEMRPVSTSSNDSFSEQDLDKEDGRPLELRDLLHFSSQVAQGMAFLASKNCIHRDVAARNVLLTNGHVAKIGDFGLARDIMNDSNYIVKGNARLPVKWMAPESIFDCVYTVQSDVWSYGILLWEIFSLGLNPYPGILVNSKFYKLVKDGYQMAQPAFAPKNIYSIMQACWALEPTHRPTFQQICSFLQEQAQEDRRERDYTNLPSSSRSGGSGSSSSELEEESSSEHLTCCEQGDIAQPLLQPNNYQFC
In short: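 Recombinant CSF-1R cytoplasmic domain (4 nM) phosphorylated biotinylated peptide (0.05 μM) at 1.0 μM ATP in HEPES with Mg2+/Mn2+, 2 h at room temperature, compounds from 25 μM in 3-fold steps. AlphaScreen anti-phosphotyrosine PT66 detection; IC50 by non-linear regression.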

[2] = tested on: MNFS60 (murine AML cells); assay: Cell viability assay in MCSF dependent MNFS60 cells (Cell Titer Glo); assay type: cell-based; conditions: Mus musculus; tested at about 1 μM; MCSF 10 ng/mL, 72 hrs; read-out: CPEC50 MNFS60MCSF percent inhibition
Protocol: Cell viability was assessed by Cell Titer Glo, Promega. MNFS60 (murine AML cells) were seeded in TC treated 96-well plates at a density of 5,000 cells per well in RPMI-1640, 10% FBS, and 1% Penicillin Streptomycin prior to addition of compound. Test compounds were serially diluted (3 fold) in DMSO to 500× the final concentration. For each concentration of test compound, 2 μl (500×) aliquots of compound or 100% DMSO (control) were diluted in 500 μl of culture medium that contained 2× final concentration of growth factor MCSF for 2× concentration and then diluted 1× on the cells. Final concentration of MCSF is 10 ng/mL. Cells were incubated for 72 hrs at 37° C., 5% CO2. After the incubation 100 μl Cell Titer Glo is added to each well to determine viable cells. The assay was performed according to the manufacturer's instruction (Promega Corporation, Madison, Wis. USA). Each experimental condition was performed in triplicate. Raw data was imported in Abase and EC50s calculated with XL-fit data analysis software: Relative light units of wells that contained cells without MCSF in the media and as a consequence didn't grow were defined as 100% inhibited.

cKIT = target: T2, cKIT (Homo sapiens, UniProt P10721); assay: cKIT kinase in vitro biochemical assay (alphascreen); conditions: tested at about 1 μM; read-out: CKIT percent inhibition
T2 construct: The kinase domain of cKIT was assayed in 50 mM Hepes; purchased Upstate 14-559

PDGFRb = target: T3, PDGFRb (Homo sapiens, UniProt P09619); assay: PDGFRb kinase in vitro biochemical assay (alphascreen); conditions: tested at about 1 μM; read-out: PDGF RK BETA percent inhibition
T3 construct: The kinase domain of PDGFRβ was assayed in 50 mM Hepes; purchased Invitrogen P3082
T3 sequence (P09619 600-962 limits assumed): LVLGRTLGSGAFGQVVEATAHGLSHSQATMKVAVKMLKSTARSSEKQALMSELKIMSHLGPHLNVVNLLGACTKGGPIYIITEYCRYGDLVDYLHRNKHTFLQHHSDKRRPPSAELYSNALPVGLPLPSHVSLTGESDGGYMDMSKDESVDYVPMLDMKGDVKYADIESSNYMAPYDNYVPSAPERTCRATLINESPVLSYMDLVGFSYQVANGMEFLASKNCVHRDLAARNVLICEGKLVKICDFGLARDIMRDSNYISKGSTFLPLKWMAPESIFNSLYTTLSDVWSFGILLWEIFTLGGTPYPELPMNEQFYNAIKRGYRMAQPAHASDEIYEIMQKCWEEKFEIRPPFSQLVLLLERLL

T2 sequence (P10721 589-937 limits assumed): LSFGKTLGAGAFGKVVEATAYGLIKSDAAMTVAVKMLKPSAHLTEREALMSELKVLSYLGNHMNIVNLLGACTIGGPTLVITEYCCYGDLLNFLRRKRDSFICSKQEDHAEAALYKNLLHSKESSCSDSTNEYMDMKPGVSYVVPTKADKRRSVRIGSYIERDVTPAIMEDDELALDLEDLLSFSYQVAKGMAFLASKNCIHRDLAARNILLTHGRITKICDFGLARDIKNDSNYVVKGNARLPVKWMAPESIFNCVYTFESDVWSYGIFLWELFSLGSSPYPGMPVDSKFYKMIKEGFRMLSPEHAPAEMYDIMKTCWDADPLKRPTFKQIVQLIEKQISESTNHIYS

SMILES | inhibition at 1 µM [1] [%] | inhibition at 1 µM [2] [%] | inhibition at 1 µM (cKIT) [%] | inhibition at 1 µM (PDGFRb) [%]
CNC(=O)c1ccc(Oc2ccc3nc(N[C@@H](C)C4CCCCC4)sc3c2)cn1 [Compound 53, (S)-5-(2-(1-cyclohexylethylamino)benzo[d]thiazol-6-yloxy)-N-methylpicolinamide] | 98 | 13 | 12 | 13
O[C@@H]1CCCC[C@H]1Nc1nc2ccc(Oc3cncc(-c4cncs4)c3)cc2s1 [Compound 70, (1R,2R)-2-(6-(5-(thiazol-5-yl)pyridin-3-yloxy)benzo[d]thiazol-2-ylamino) cyclohexanol] | 100 | 100 | 64 | 13
N#Cc1ccc(-c2cncc(Oc3ccc4nc(N[C@@H]5CCCC[C@H]5O)sc4c3)c2)cn1 [Compound 73, 5′-(2-((1R,2R)-2-hydroxycyclohexylamino)benzo[d]thiazol-6-yloxy)-3,3′-bipyridine-6-carbonitrile] | 99 | 23 | 44 | 3
COc1cncc(-c2cncc(Oc3ccc4nc(N[C@@H]5CCCC[C@H]5O)sc4c3)c2)c1 [Compound 74, (1R,2R)-2-(6-(5′-methoxy-3,3′-bipyridin-5-yloxy)benzo [d]thiazol-2-ylamino) cyclohexanol] | 100 | 100 | 59 | 1
O=C(c1cncc(-c2cncc(Oc3ccc4nc(N[C@@H]5CCCC[C@H]5O)sc4c3)c2)c1)N1CCOCC1 [Compound 75, (5′-(2-((1R,2R)-2-hydroxycyclohexylamino)benzo[d]thiazol-6-yloxy)-3,3′-bipyridin-5-yl) (morpholino)methanone] | 100 | 33 | 28 | 5
CN(C)c1ncc(-c2cncc(Oc3ccc4nc(N[C@@H]5CCCC[C@H]5O)sc4c3)c2)cn1 [Compound 76, (1R,2R)-2-(6-(5-(2-(dimethylamino)pyrimidin-5-yl)pyridin-3-yloxy)benzo [d]thiazol-2-ylamino) cyclohexanol] | 100 | 54 | 24 | 0
CCn1cc(-c2cncc(Oc3ccc4nc(N[C@@H]5CCCC[C@H]5O)sc4c3)c2)cn1 [Compound 80, (1R,2R)-2-(6-(5-(1-ethyl-1H-pyrazol-4-yl)pyridin-3-yloxy)benzo[d]thiazol-2-ylamino)cyclohexanol] | 100 | 100 | 66 | 0
CCN(CC)CCn1cc(-c2cncc(Oc3ccc4nc(N[C@@H]5CCCC[C@H]5O)sc4c3)c2)cn1 [Compound 81, (1R,2R)-2-(6-(5-(1-(2-(diethylamino)ethyl)-1H-pyrazol-4-yl)pyridin-3-yloxy)benzo[d]thiazol-2-ylamino)cyclohexanol] | 100 | 100 | 56 | 0
O[C@@H]1CCCC[C@H]1Nc1nc2ccc(Oc3cncc(-c4cnccn4)c3)cc2s1 [Compound 84, (1R,2R)-2-(6-(5-(pyrazin-2-yl)pyridin-3-yloxy)benzo[d]thiazol-2-ylamnino) cyclohexanol] | 100 | 100 | 99 | 100
O[C@@H]1CCCC[C@H]1Nc1nc2ccc(Oc3cncc(C4=CCNCC4)c3)cc2s1 [Compound 85, (1R,2R)-2-(6-(5-(1,2,3,6-tetrahydropyridin-4-yl)pyridin-3-yloxy)benzo[d]thiazol-2-ylamino)cyclohexanol] | 96 | 13 | 13 | 2
